The test system of the assay is breast cancer cell lines MCF-7, SK-BR-3, T47D. Nature of the assay: Selectivity towards all breast cancer cell lines tested (SRB). The class given is cell-based, human. The settings on record: IC50 BALB/3T3/IC50 of MCF-7, SK-BR-3, T47D. The method, then: The selective effect of a drug can be expressed by the selectivity index (SI), which is determined by comparing the cytotoxic activity of each compound against each cancer cell line with the activity against a normal cell line. The SI was calculated as the IC50 ratio for a normal cell line (SIA—HLMEC; SIB—BALB/3T3) to the IC50 value for the corresponding tumor cell line using the following equation:(1) SI=IC50 for normal cell line/IC50 for cancerous cell line […]
The details of this technique were described by Skehan et al.. […] The unbound dye was removed by washing the plates five times with 1% acetic acid, whereas the stain bound to the cells was extracted with 150 µL of 10 mM unbuffered Tris base for determination of the optical density at a 540 nm wavelength in a computer-interfaced, 96-well microtiter plate reader–Multiskan FC photometer (Thermo Scientific, Waltham, MA, USA). The background optical density was measured in the wells filled with culture medium, without the cells. […]

Turning to `COc1cc(O)c(CC=C(C)C)c2c1C(=O)/C(=C/c1ccc(O)cc1)O2` [compound 2, (Z)-6,4′-dihydroxy-4-methoxy-7-prenylaurone], the “selectivity index SIB, range over breast cancer cell lines” value is on record as 3.93–5.50.

Values taken from paper PMC10138577, “Prenylated Flavonoids with Selective Toxicity against Human Cancers” (International Journal of Molecular Sciences, 2023).
